One assay relates to C. glabrata 2001. Description: microbe, parasite or virus in culture. The format is cell-based, Candida glabrata. To be noted: Table S1; unit and conditions not given (MICs elsewhere in μg/mL). The procedure:
(§1) All microdilution assays with fungi were carried out in accordance with CLSI protocols from M27 for yeasts and M38 for filamentous fungi, respectively, unless otherwise specified.[64],[65] Briefly, 96-well plates were charged with RPMI1640 media, with operating volume in the first column, 200 μL, and half operating volume, 100 μL, in the remaining wells. Drug stock solution in DMSO was aliquoted into the first well in each row. Half of the volume in the dosed well was serially diluted 2-fold until column 11. Column 11 was used as the negative growth control, and column 12 was used as the positive growth control. ON yeast cultures in YPD were washed twice in DD-H2O, resuspended in PBS, and adjusted to 5000 cfu/mL in RPMI. The 96-well plate was inoculated with 100 μL aliquots of cell suspension per well. Plates were incubated at 37 °C for 2 days.

The test system of a further assay is C. neoformans cdc50Δ. In words: microbe, parasite or virus in culture. The format is cell-based, Cryptococcus neoformans. To be noted: Table S1; unit and conditions not given (MICs elsewhere in μg/mL). As for the experimental part: as §1
Assay [1] has as its system C. neoformans H99. In words: microbe, parasite or virus in culture. It is filed as cell-based, Cryptococcus neoformans. The settings on record: Table S1; unit and conditions not given (MICs elsewhere in μg/mL). As for the experimental part: as §1
A further assay deals with C. albicans SC5413. Description: microbe, parasite or virus in culture. The format is cell-based, Candida albicans. The settings on record: Table S1; unit and conditions not given (MICs elsewhere in μg/mL). As for the experimental part:
as §1

For assay [2], the system named is C. neoformans H99. It is filed as cell-based, Cryptococcus neoformans. The settings on record: (FITC)KKOO in combination with AMB. As for the experimental part:
as §1, with “Plates were incubated at 37 °C for 2 days.” left out
To assess drug synergy, the initial media charged to the plate contained the peptide at twice the final operating concentration; the remaining processing steps were identical to the MIC experiment. Upon addition of 100 μL of inoculant, the final operating concentration was achieved. Control MIC plates were prepared alongside drug synergy plates to account for the day-to-day variability in any individual MIC. FIC index is computed using eq 1. All MIC assays and drug synergy assays were completed with two technical replicates per 96-well plate and a minimum of two biological replicates per drug combination. If a difference in MIC between the two technical replicates on the plate were observed, only the higher concentration was reported as the MIC to reduce the possibility of type 1 error (false positive) [drawing 1] 1

For the substance “WGG{D-Ile}OONYA [I4i, D-Ile4 epimer of KKOO]”, the “MIC (SAR screen peptides)” value is reported as 64 in the assay with C. glabrata 2001, 4 in the assay on C. neoformans cdc50Δ, 16 with C. neoformans H99 [1] and more than 128 in the assay with C. albicans SC5413.

With “WGGIAKNYA [K5A, alanine substituted peptide]”, the “MIC (SAR screen peptides)” value with C. glabrata 2001 and against C. neoformans cdc50Δ was more than 128 throughout.

For “WGGIAANYA [KKAA, alanine substituted peptide]”, the “MIC (SAR screen peptides)” value in the assay on C. glabrata 2001 and against C. neoformans cdc50Δ was more than 128 each time.

For “WGGIKANYA [K6A, alanine substituted peptide]”, the “MIC (SAR screen peptides)” value in the assay with C. glabrata 2001 and against C. neoformans cdc50Δ was more than 128 throughout.

On to “WGGIOONYA [KKOO-NHMe, C′ methylamide version of KKOO]”, for which the “MIC (SAR screen peptides)” value against C. glabrata 2001 was determined as 16; in the assay with C. neoformans cdc50Δ, 4; in the assay with C. neoformans H99 [1], 8; in the assay with C. albicans SC5413, 16.

For “WGGIOO{D-Asn}YA [N7n, D-Asn7 epimer of KKOO]”, the “MIC (SAR screen peptides)” value in the assay on C. glabrata 2001 is more than 128; against C. neoformans cdc50Δ, 8; against C. neoformans H99 [1], 32; against C. albicans SC5413, more than 128.

With “WGGIOKNYA [K5O, single ornithine-substituted AW9-Ma derivative]”, the “MIC (SAR screen peptides)” value was more than 128 with C. glabrata 2001, 8 against C. neoformans cdc50Δ and more than 128 against C. neoformans H99 [1].

Turning to “W{Hyp}GIOONYA [G2HYP, hydroxyproline at position 2, C′ NH2]”, the “MIC (SAR screen peptides)” value was found to be 16 against C. glabrata 2001, 4 with C. neoformans cdc50Δ, 8 in the assay with C. neoformans H99 [1] and 16 in the assay on C. albicans SC5413.

On to “WGGIKONYA [K6O, single ornithine-substituted AW9-Ma derivative]”, for which the “MIC (SAR screen peptides)” value worked out at 32 against C. glabrata 2001, 4 in the assay on C. neoformans cdc50Δ, 32 against C. neoformans H99 [1] and 32 against C. albicans SC5413.

As for “Myristic acid {Dap(FITC)}WGGIOONYA [(FITC)KKOO, FITC labeled version of KKOO]”, in the assay with C. neoformans H99 [2], the FIC index is less than 0.5. In addition, the “MIC (SAR screen peptides)” value was 128 with C. neoformans cdc50Δ and more than 128 with C. neoformans H99 [1].

As to “WGGIOONY{D-Ala} [A9a, D-Ala9 epimer of KKOO]”, the “MIC (SAR screen peptides)” value is listed as more than 128 against C. glabrata 2001, 4 against C. neoformans cdc50Δ, more than 128 with C. neoformans H99 [1] and more than 128 in the assay with C. albicans SC5413.

For “WGGIO{D-Orn}NYA [O6o, D-Orn6 epimer of KKOO]”, the “MIC (SAR screen peptides)” value is reported as more than 128 in the assay on C. glabrata 2001, 4 against C. neoformans cdc50Δ, 16 against C. neoformans H99 [1] and more than 128 against C. albicans SC5413.

With “{D-Trp}GGIOONYA [W1w, D-Trp1 epimer of KKOO]”, the “MIC (SAR screen peptides)” value with C. glabrata 2001 is 32; against C. neoformans cdc50Δ, 4; against C. neoformans H99 [1] it was 16; against C. albicans SC5413, more than 128.
